In the assay the test system is maximal SAP response to Big-ET. The assay can be described thus: In vivo inhibition of maximal SAP response to Big-ET in anesthetized rats after oral administration. More on the design: species or system Rats (Sprague-Dawley). The note with it: oral by gavage, 100 μmol/kg, 1 h before Big-ET challenge; mean ± standard error; negative = inhibition. On the procedure: Rats (Sprague-Dawley, CRLD=Charles River) were anaesthetised with 1 ml/kg Rompun/Ketavet 1:1. A pressure transducer (Statham) was inserted into the carotid artery to measure blood pressure.
For oral testing, the substances (or vehicle) were given by gavage at doses of 100 μmol/kg each, 1 h before the Big-ET challenge, and blood pressure and heart rate were monitored as described above.
The inhibition of maximal SAP response to Big-ET in anesthetized rats following oral administration of the test substances of Formula I is set forth in the following Table 3c: […]
Data given in table 3c as negative values indicate an inhibitory effect. Values are means from 3-6 independent series of experiments ±standard error.

Consider one compound from patent publication US20080085889A1, “Amidomethyl-Substituted 1-(Carboxyalkyl) Cyclopentyl-Carbonylamino-Benzazepine-N-Acetic Acid Compounds, Process and Intermediate Products for Their Preparation and Pharmaceutical Compositions Containing Them” (SOLVAY PHARMACEUTICALS GmbH, priority 2003, published 2008).

The structures appear in SMILES notation.

Regarding `CN(C)CCCN(C)C(=O)CC(CC1(C(=O)NC2CCc3ccccc3N(CC(=O)O)C2=O)CCCC1)C(=O)O` (stereo not shown) [Example 64, 2-[(1-{[1-(carboxymethyl)-2-oxo-2,3,4,5-tetrahydro-1H-1-benzazepin-3-yl]carbamoyl}cyclopentyl)methyl]-4-{[3-(dimethylamino)propyl](methyl)amino}-4-oxobutanoic acid], the “% substance-related inhibition of the maximum Big-ET effect on SAP vs. control” value is reported as −53 ± 5%.
